Data from ChEMBL document CHEMBL5241072, “Overview of piperlongumine analogues and their therapeutic potential” (Eur J Med Chem, 2021).

Columns and labels:
[1] = tested on: A549; assay: Antiproliferative activity against human A549 cells assessed as cell growth inhibition; assay type: functional, cell-based
[2] = target: 20S proteasome; assay: Inhibition of human 20S proteasome; assay type: protein-complex assay
[3] = Cytotoxicity against mouse RAW264.7 cells assessed as cell growth inhibition; assay type: toxicity, cell-based
[4] = tested on: Hepatitis B virus; assay: Antiviral activity against HBV infected in human HepG2.2.15 cells assessed as reduction in extracellular HBV DNA level; assay type: functional, organism-based
[5] = tested on: Hepatitis B virus; assay: Antiviral activity against HBV infected in human HepG2.2.15 cells assessed as reduction in intracellular HBV DNA level; assay type: functional, organism-based
[6] = organism: Oryctolagus cuniculus; assay: Antiplatelet activity in rabbit plasma assessed as inhibition of arachidonic acid induced platelet aggregation by microplate reader analysis; assay type: functional
[7] = organism: Oryctolagus cuniculus; assay: Antiplatelet activity in rabbit plasma assessed as inhibition of ADP induced platelet aggregation by microplate reader analysis; assay type: functional
[8] = tested on: NCI-H1703; assay: Antiproliferative activity against human NCI-H1703 cells assessed as cell growth inhibition; assay type: functional, cell-based
[9] = tested on: HeLa; assay: Antiproliferative activity against human HeLa cells assessed as cell growth inhibition; assay type: functional, cell-based
[10] = organism: Oryctolagus cuniculus; assay: Antiplatelet activity in rabbit plasma assessed as inhibition of arachidonic acid induced platelet aggregation at 150 uM by aggregometer analysis relative to control; assay type: functional; design: scale not given: the % may be the effect or the level left
[11] = tested on: NSCLC; assay: Cytotoxicity against human NSCLC cells assessed as cell growth inhibition; assay type: functional, cell-based
[12] = tested on: MDA-MB-231; assay: Antiproliferative activity against human MDA-MB-231 cells assessed as cell growth inhibition; assay type: functional, cell-based
[13] = Inhibition of TrxR in human MDA-MB-231 cells; assay type: cell-based
[14] = tested on: MDA-MB-231; assay: Antitumor activity against BALB/c mouse xenografted with human MDA-MB-231 cells assessed as tumor growth inhibition at 25 mg/kg, ip measured after 21 days relative to control; assay type: functional; conditions: MDA-MB-231, 504 h, time 21 day, read-out: TGI
[15] = tested on: MDA-MB-231; assay: Potency index, ratio of piperlongumine IC50 to compound IC50 for inhibition of TrxR in human MDA-MB-231 cells; assay type: cell-based
[16] = tested on: PC-12; assay: Neuroprotective activity against H2O2-induced cytotoxicity in rat PC-12 cells assessed as cell survival rate preincubated for 24 hrs followed by H2O2 stimulation and measured after 24 hrs by MTT assay relative to control; assay type: functional; conditions: time 48 hrs
[17] = Inhibition of TrxR in human HGC-27 cells; assay type: cell-based
[18] = tested on: HGC-27; assay: Antiproliferative activity against human HGC-27 cells assessed as cell growth inhibition; assay type: functional, cell-based
[19] = tested on: HGC-27; assay: Potency index, ratio of piperlongumine IC50 to compound IC50 for inhibition of TrxR in human HGC-27 cells; assay type: cell-based
[20] = tested on: HGC-27; assay: Potency index, ratio of piperlongumine IC50 to compound IC50 for antiproliferative activity against human HGC-27 cells; assay type: functional
[21] = tested on: HL-60; assay: Antiproliferative activity against human HL-60 cells assessed as cell growth inhibition; assay type: functional, cell-based
[22] = tested on: HCT-8; assay: Antiproliferative activity against human HCT-8 cells assessed as cell growth inhibition; assay type: functional, cell-based
[23] = tested on: HL-60; assay: Antiproliferative activity against human HL-60 cells assessed as cell growth inhibition in presence of piperlongumine; assay type: functional, cell-based
[24] = tested on: HCT-8; assay: Antiproliferative activity against human HCT-8 cells assessed as cell growth inhibition in presence of piperlongumine; assay type: functional, cell-based
[25] = tested on: MDA-MB-435; assay: Antiproliferative activity against human MDA-MB-435 cells assessed as cell growth inhibition; assay type: functional, cell-based
[26] = tested on: MDA-MB-435; assay: Antiproliferative activity against human MDA-MB-435 cells assessed as cell growth inhibition in presence of piperlongumine; assay type: functional, cell-based
[27] = tested on: SF-295; assay: Antiproliferative activity against human SF-295 cells assessed as cell growth inhibition; assay type: functional, cell-based
[28] = tested on: SF-295; assay: Antiproliferative activity against human SF-295 cells assessed as cell growth inhibition in presence of piperlongumine; assay type: functional, cell-based
[29] = tested on: KB; assay: Antiproliferative activity against human KB cells assessed as cell growth inhibition; assay type: functional
[30] = tested on: P388; assay: Antiproliferative activity against mouse P388 cells assessed as cell growth inhibition; assay type: functional, cell-based
[31] = tested on: CCRF-CEM; assay: Antiproliferative activity against human CEM cells assessed as cell growth inhibition; assay type: functional, cell-based
[32] = tested on: K562; assay: Antiproliferative activity against human K562 cells assessed as cell growth inhibition; assay type: functional, cell-based
[33] = tested on: Jurkat; assay: Antiproliferative activity against human Jurkat cells assessed as cell growth inhibition; assay type: functional, cell-based
[34] = tested on: MOLT-4; assay: Antiproliferative activity against human MOLT-4 cells assessed as cell growth inhibition; assay type: functional, cell-based
[35] = tested on: HT-29; assay: Antiproliferative activity against human HT-29 cells assessed as cell growth inhibition; assay type: functional, cell-based
[36] = tested on: HCT-116; assay: Antiproliferative activity against human HCT-116 cells assessed as cell growth inhibition; assay type: functional, cell-based
[37] = tested on: MCF7; assay: Antiproliferative activity against human MCF7 cells assessed as cell growth inhibition; assay type: functional, cell-based
[38] = tested on: LN-229; assay: Antiproliferative activity against human LN-229 cells assessed as cell growth inhibition; assay type: functional, cell-based
[39] = Antiproliferative activity against human U87 cells assessed as cell growth inhibition; assay type: functional, cell-based, U-87MG ATCC; conditions: U-87 MG
[40] = tested on: 8-MG-BA; assay: Antiproliferative activity against human 8-MG-BA cells assessed as cell growth inhibition; assay type: functional, cell-based
[41] = tested on: DU-145; assay: Antiproliferative activity against human DU-145 cells assessed as cell growth inhibition; assay type: functional, cell-based
[42] = tested on: PC-3; assay: Antiproliferative activity against human PC-3 cells assessed as cell growth inhibition; assay type: functional, cell-based
[43] = Antiproliferative activity against human NCI-H660 cells assessed as cell growth inhibition; assay type: functional, cell-based
[44] = Antiproliferative activity against human OC2 cells assessed as cell growth inhibition; assay type: functional, cell-based
[45] = Antiproliferative activity against human OCSL cell assessed as cell growth inhibition; assay type: functional, cell-based
[46] = tested on: MKN-45; assay: Antiproliferative activity against human MKN-45 cells assessed as cell growth inhibition; assay type: functional, cell-based
[47] = tested on: AGS; assay: Antiproliferative activity against human AGS cells assessed as cell growth inhibition; assay type: functional, cell-based
[48] = tested on: A-375; assay: Antiproliferative activity against human A-375 cells assessed as cell growth inhibition; assay type: functional, cell-based
[49] = Antiproliferative activity against human A875 cells assessed as cell growth inhibition; assay type: functional, cell-based

Structure (SMILES): COc1cc(/C=C/C(=O)N2CCC=C(Cl)C2=O)cc(OC)c1OC
- IC50 [1]: 4.14 µM

Structure (SMILES): C=CC(=O)NC(=O)/C=C/c1cc(OC)c(OC)c(OC)c1
- IC50 [2]: 2.6 µM

Structure (SMILES): COc1cc(/C=C/C(=O)C2CCC=CC2=O)cc(OC)c1OC (configuration not stated)
- IC50 [3]: 6 µM

Structure (SMILES): CC(=O)Nc1ccc(-c2cc(C)c(=O)n(Cc3ccc(Cl)cc3)n2)cc1
- IC50 [4]: 1.5 µM
- IC50 [5]: 3 µM

Structure (SMILES): O=C1C=CCCN1C(=O)/C=C/c1ccc2ccccc2n1
- IC50 [6]: 0.13 µM
- IC50 [7]: 403 µM

Structure (SMILES): O=C(/C=C/c1ccc2ccccc2n1)N1CCC=C(Cl)C1=O
- IC50 [6]: 0.108 µM
- IC50 [7]: 3140 µM

Structure (SMILES): COc1cc(/C=C/C(=O)N2CCC=C(C#CC3CC3)C2=O)cc(OC)c1OC
- IC50 [8]: 0.7 µM
- IC50 [9]: 1.3 µM

Structure (SMILES): O=C(/C=C/c1cnccn1)N1CCC=C(Cl)C1=O
- Activity [10]: 100%

Structure (SMILES): COc1cc(/C=C2\CN(C=O)C/C(=C\c3cc(OC)c(OC)c(OC)c3)C2=O)cc(OC)c1OC
- IC50 [11]: 0.6 µM

Structure (SMILES): O=C1C=CCC/C1=C\c1ccc(Oc2ccc(/C=C3\CCC=CC3=O)cc2)cc1
- IC50 [12]: 0.63 µM
- IC50 [13]: 0.16 µM
- inhibition in vivo at 25 mg/kg [14]: 67%
- Ratio IC50 [15]: 10

Structure (SMILES): COc1cc(OC)c(/C=C2\CC/C(=C\c3cc(OC)c(OC)c(OC)c3)C2=O)c(OC)c1
- Survival [16]: 80%

Structure (SMILES): COCCOCCOc1ccc(/C=C2\CCC=CC2=O)cc1OC
- IC50 [17]: 0.15 µM
- IC50 [18]: 0.76 µM
- Ratio IC50 [19]: 12
- Ratio IC50 [20]: 10

Structure (SMILES): O=c1[nH]cc(F)c(=O)[nH]1 [FLUOROURACIL]
- IC50 [21]: 84.7 µM
- IC50 [22]: 11.2 µM
- IC50 [23]: 38.1 µM
- IC50 [24]: 4.7 µM
- IC50 [25]: 9.19 µM
- IC50 [26]: 1.95 µM
- IC50 [27]: 2.33 µM
- IC50 [28]: 0.49 µM

Structure (SMILES): COc1cc(/C=C/C(=O)N2CCC=CC2=O)cc(OC)c1OC [PIPLARTINE]
- IC50 [2]: 15 µM
- Activity [10]: 76.4%
- IC50 [6]: 20.8 µM
- IC50 [7]: 6710 µM
- IC50 [1]: 10.2 µM
- IC50 [29]: 5.6 µM
- IC50 [30]: 2.8 µM
- IC50 [21]: 5.3 µM
- IC50 [31]: 4.4 µM
- IC50 [32]: 5.7 µM
- IC50 [33]: 5.3 µM
- IC50 [34]: 1.7 µM
- IC50 [35]: 1.4 µM
- IC50 [22]: 2.2 µM
- IC50 [36]: 13.9 µM
- IC50 [37]: 25 µM
- IC50 [12]: 1.72 µM
- IC50 [38]: 10 µM
- IC50 [39]: 10 µM
- IC50 [40]: 10 µM
- IC50 [41]: 3.4 µM
- IC50 [42]: 4.9 µM
- IC50 [43]: 0.4 µM
- IC50 [44]: 7.4 µM
- IC50 [45]: 11.3 µM
- IC50 [46]: 20 µM
- IC50 [47]: 20 µM
- IC50 [48]: 2.5 µM
- IC50 [49]: 2.5 µM
- IC50 [11]: 9.2 µM
- IC50 [13]: 1.52 µM
- IC50 [18]: 7.53 µM
